What was measured:
DGKα = DGKα (Homo sapiens (Human), UniProt P23743); assay: In vitro DGKα inhibition assay (ADP-Glo); assay type: biochemical; conditions: His-tagged human recombinant enzyme, 0.1 nM DGKα, 50 μM ATP, 20 μM DLG, 90 minute incubation
Description: (§1) The DGKα and DGKξ biochemical reactions were performed using His-tagged human recombinant enzymes (Signal Chem, DGKα, #D21-1OBH; DGKξ, #D30-10H)) and DLG (Dilauroyl-sn-glycerol) lipid substrate (Signal Chem, #D430-59). ADP-Glo assay was performed using ADP-Glog™ kinase Assay kit (Promega, #V9104). The reactions were carried out in assay buffer containing 40 mM Tris, pH 7.5, 0.1% CHAPS, 0.1% Prionex, 40 mM NaCl, 5 mM MgCl2, 1 mM CaCl2, and 1 mM DTT. DGKα reactions contained 0.1 nM DGKα, 50 μM ATP, and 20 μM DLG. And DGKC reactions contained 0.4 nM DGK, 30 μM ATP, and 20 μM DLG.
(§2) For compound inhibition studies, 40 nL test compound in DMSO was added to wells of white polystyrene plates in 384-well (Greiner, #784075) or 1536-well format (Greiner, #782075). Compounds were added with top concentration of 2 mM with 11 point, 3-fold dilution series. Enzyme solution (contains 2×DGK enzyme concentration in Ix assay buffer) was added to the plate in 2 μL/well volume, followed by 2 μL/well of substrate solution (contains 2×concentration of ATP and DLG substrate in Ix assay buffer). Plates were then centrifuged for 1 min at 1200 RPM and sealed or lidded. For 4 μL reaction volume, test compounds were therefore diluted 100× to final top concentration of 20 μM. After 90 minute incubation, reactions were quenched by addition of 2 μL/well Promega ADP-Glo Reagent, followed by centrifugation and lidding. After 60 min incubation, 2 μL/well Promega Kinase Detection Reagent was added, plates centrifuged, and incubated for 30 min. Plates were then read using Luminescence method on BMG PHERAstar FSX plate reader. Percent inhibition was calculated and IC50s were determined using 4-parameter fit in Genedata Screener. Labcyte Echo acoustic dispenser was used for compound addition, and Formulatrix Tempest liquid handler was used for all reagent dispenses.

DGKζ = DGKζ (Homo sapiens (Human), UniProt Q13574); assay: In vitro DGKζ inhibition assay (ADP-Glo); assay type: biochemical; conditions: His-tagged human recombinant enzyme, 0.4 nM DGK, 30 μM ATP, 20 μM DLG, 90 minute incubation
Chain of DGKζ (Q13574 whole entry): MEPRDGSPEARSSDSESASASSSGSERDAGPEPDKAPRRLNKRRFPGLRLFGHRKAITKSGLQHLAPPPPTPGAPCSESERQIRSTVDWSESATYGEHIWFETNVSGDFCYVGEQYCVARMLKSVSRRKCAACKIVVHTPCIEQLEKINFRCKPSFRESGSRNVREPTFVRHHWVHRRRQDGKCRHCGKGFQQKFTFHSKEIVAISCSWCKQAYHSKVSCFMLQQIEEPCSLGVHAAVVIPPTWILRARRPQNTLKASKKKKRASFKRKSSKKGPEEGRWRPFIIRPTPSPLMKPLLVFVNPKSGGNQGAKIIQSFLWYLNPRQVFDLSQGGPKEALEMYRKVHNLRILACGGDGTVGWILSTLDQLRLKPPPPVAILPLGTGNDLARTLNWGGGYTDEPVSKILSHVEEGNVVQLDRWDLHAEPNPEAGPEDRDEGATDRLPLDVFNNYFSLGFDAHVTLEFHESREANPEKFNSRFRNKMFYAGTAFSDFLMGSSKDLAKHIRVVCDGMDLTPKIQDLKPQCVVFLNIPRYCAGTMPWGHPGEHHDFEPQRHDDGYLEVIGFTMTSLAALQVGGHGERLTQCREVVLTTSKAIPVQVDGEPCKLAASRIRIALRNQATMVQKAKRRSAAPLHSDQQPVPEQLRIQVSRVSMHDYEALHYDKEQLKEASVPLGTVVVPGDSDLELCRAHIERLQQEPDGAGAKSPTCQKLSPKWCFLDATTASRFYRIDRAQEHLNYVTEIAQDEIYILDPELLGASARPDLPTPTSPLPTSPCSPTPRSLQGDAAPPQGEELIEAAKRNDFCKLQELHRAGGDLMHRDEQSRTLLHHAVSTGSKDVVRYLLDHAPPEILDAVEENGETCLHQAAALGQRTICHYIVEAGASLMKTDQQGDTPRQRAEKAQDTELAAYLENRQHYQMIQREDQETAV
Description: as §1, §2

Chain of DGKα (P23743 whole entry): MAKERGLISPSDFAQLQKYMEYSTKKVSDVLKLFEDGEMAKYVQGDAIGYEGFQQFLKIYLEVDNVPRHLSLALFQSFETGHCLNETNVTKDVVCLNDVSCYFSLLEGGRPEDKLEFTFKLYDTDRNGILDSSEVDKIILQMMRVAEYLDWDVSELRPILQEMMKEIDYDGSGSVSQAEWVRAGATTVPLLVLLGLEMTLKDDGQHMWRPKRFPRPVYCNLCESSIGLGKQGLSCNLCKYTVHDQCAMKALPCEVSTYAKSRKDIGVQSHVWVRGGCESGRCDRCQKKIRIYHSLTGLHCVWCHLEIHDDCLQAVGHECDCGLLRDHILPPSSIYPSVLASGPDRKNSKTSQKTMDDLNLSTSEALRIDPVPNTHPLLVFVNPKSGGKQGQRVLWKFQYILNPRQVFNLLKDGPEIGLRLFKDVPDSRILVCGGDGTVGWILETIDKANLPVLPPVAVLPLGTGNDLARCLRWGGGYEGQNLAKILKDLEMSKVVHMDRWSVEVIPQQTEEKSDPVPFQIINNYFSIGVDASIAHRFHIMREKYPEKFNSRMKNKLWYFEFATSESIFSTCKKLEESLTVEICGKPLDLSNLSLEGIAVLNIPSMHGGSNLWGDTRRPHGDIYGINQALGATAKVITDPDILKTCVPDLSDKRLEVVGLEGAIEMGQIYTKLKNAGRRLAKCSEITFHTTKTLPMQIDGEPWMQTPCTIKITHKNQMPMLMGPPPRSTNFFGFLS

Row | Structure (SMILES) | IC50 (DGKα) [µM] | IC50 (DGKζ) [µM]
1 | Cc1nc2c(N3C[C@@H](C)N(C(c4ccc(C(F)(F)F)cc4)C4CC(F)(F)C4)C[C@@H]3C)nc3nncn3c2n1C[C@@H]1CCCO1 (single isomer, unassigned) [Example 43] | ≤ 0.02 | ≤ 0.02
2 | C[C@@H]1CN(c2nc3nncn3c3c2nnn3C[C@H]2CCCO2)[C@@H](C)CN1C(c1ccc(Cl)cc1)c1ccc(Cl)cc1 [Example 106, 4-((2S,5R)-4-(Bis(4-chlorophenyl)methyl)-2,5-dimethylpiperazin-1-yl)-1-(((R)-tetrahydrofuran-2-yl)methyl)-1H-[1,2,3]triazolo[4,5-e][1,2,4]triazolo[4,3-a]pyrimidine] | ≤ 0.02 | ≤ 0.02
3 | C[C@@H]1CN(c2nc3nncn3c3ccoc23)[C@@H](C)CN1C(c1ccc(F)cc1)c1ccc(F)cc1 [Example 7, 5-((2S,5R)-4-(Bis(4-fluorophenyl)methyl)-2,5-dimethylpiperazin-1-yl)furo[2,3-e][1,2,4]triazolo[4,3-a]pyrimidine] | ≤ 0.02 | > 2
4 | Cc1nc2c(N3C[C@@H](C)N(C(c4ccc(Br)cc4)c4ccc(F)c(Cl)c4)C[C@@H]3C)nc3nncn3c2n1C[C@@H]1CCCO1 (single isomer, unassigned) [Example 141] | ≤ 0.02 | ≤ 0.02
5 | C[C@@H]1CN(c2nc3nncn3c3c2ncn3CC2CC2)[C@@H](C)CN1C(c1ccc(F)cc1)c1ccc(F)cc1 [Example 18, 4-((2S,5R)-4-(Bis(4-fluorophenyl)methyl)-2,5-dimethylpiperazin-1-yl)-1-(cyclopropylmethyl)-1H-[1,2,4]triazolo[3,4-b]purine] | ≤ 0.02 | ≤ 0.02
6 | Cc1nc2c(N3C[C@@H](C)N([C@@H](c4ccc(Cl)c(Cl)c4)C4CC(F)(F)C4)C[C@@H]3C)nc3nncn3c2n1C[C@@H]1CCCO1 [Example 49, 4-((2S,5R)-4-((R)-(3,4-dichlorophenyl)(3,3-difluorocyclobutyl)methyl)-2,5-dimethylpiperazin-1-yl)-2-methyl-1-(((S)-tetrahydrofuran-2-yl)methyl)-1H-[1,2,4]triazolo[3,4-b]purine] | ≤ 0.02 | ≤ 0.02
7 | C[C@@H]1CN(c2nc3nncn3c3c2ncn3C[C@@H]2CCCO2)[C@@H](C)CN1[C@@H](c1ccc(F)cc1)c1ccc(OC(F)(F)F)cn1 [Example 26, 4-((2S,5R)-4-((S)-(4-Fluorophenyl)(5-(trifluoromethoxy)pyridin-2-yl)methyl)-2,5-dimethylpiperazin-1-yl)-1-(((S)-tetrahydrofuran-2-yl)methyl)-1H-[1,2,4]triazolo[3,4-b]purine] | ≤ 0.02 | ≤ 0.02
8 | CC[C@@H]1CN(c2nc3nncn3c3c2nc(C)n3C[C@@H]2CCCO2)[C@@H](C)CN1[C@@H](c1ccc(OC(F)F)cc1)C(C)C [Example 127, 4-((2S,5R)-4-((R)-1-(4-(difluoromethoxy)phenyl)-2-methylpropyl)-5-ethyl-2-methylpiperazin-1-yl)-2-methyl-1-(((S)-tetrahydrofuran-2-yl)methyl)-1H-[1,2,4]triazolo[3,4-b]purine] | ≤ 0.02 | ≤ 0.02
9 | Cc1nc2c(N3C[C@@H](C)N(C(c4ccc(F)c(C(F)F)c4)C(C)C)C[C@@H]3C)nc3nncn3c2n1C[C@@H]1CCCO1 (stereo partly drawn) [Example 82, 4-((2S,5R)-4-(1-(3-(Difluoromethyl)-4-fluorophenyl)-2-methylpropyl)-2,5-dimethylpiperazin-1-yl)-2-methyl-1-(((S)-tetrahydrofuran-2-yl)methyl)-1H-[1,2,4]triazolo[3,4-b]purine] | ≤ 0.02 | ≤ 0.02
10 | Cc1nc2c(N3C[C@@H](C)N([C@H](c4ccc(OC(F)(F)F)cc4)C(C)C)C[C@@H]3C)nc3nncn3c2n1C[C@@H]1CCCO1 [Example 118, 4-((2S,5R)-2,5-Dimethyl-4-((S)-2-methyl-1-(4-(trifluoromethoxy)phenyl)propyl)piperazin-1-yl)-2-methyl-1-(((S)-tetrahydrofuran-2-yl)methyl)-1H-[1,2,4]triazolo[3,4-b]purine] | ≤ 0.02 | ≤ 0.02
11 | C[C@@H]1CN(c2nc3nncn3c3sc(C(F)F)nc23)[C@@H](C)CN1C(c1ccc(F)cc1)c1ccc(F)cc1 [Example 3, 4-((2S,5R)-4-(Bis(4-fluorophenyl)methyl)-2,5-dimethylpiperazin-1-yl)-2-(difluoromethyl)thiazolo[4,5-e][1,2,4]triazolo[4,3-a]pyrimidine] | ≤ 0.02 | 0.2 to 2
12 | Cc1nc2c(N3C[C@@H](C)N(C(c4ccc(C(F)(F)F)cc4)[C@H]4C[C@H](C(F)(F)F)C4)C[C@@H]3C)nc3nncn3c2n1C[C@@H]1CCCO1 (stereo partly drawn) [Example 115, 4-((2S,5R)-2,5-Dimethyl-4-(((trans)-3-(trifluoromethyl)cyclobutyl)(4-(trifluoromethyl)phenyl)methyl)piperazin-1-yl)-2-methyl-1-(((S)-tetrahydrofuran-2-yl)methyl)-1H-[1,2,4]triazolo[3,4-b]purine] | ≤ 0.02 | ≤ 0.02
13 | Cc1nc2c(N3C[C@@H](C)N([C@@H](c4ccc(C(F)F)cc4)C(C)C)C[C@@H]3C)nc3nncn3c2n1C[C@@H]1CCCO1 [Example 74, 4-((2S,5R)-4-((R)-1-(4-(difluoromethyl)phenyl)-2-methylpropyl)-2,5-dimethylpiperazin-1-yl)-2-methyl-1-(((S)-tetrahydrofuran-2-yl)methyl)-1H-[1,2,4]triazolo[3,4-b]purine] | ≤ 0.02 | ≤ 0.02
14 | C[C@@H]1CN(c2cc3nncn3c3ccsc23)[C@@H](C)CN1C(c1ccc(F)cc1)c1ccc(F)cc1 [Example 11, 5-((2S,5R)-4-(Bis(4-fluorophenyl)methyl)-2,5-dimethylpiperazin-1-yl)thieno[2,3-e][1,2,4]triazolo[4,3-a]pyridine] | ≤ 0.02 | > 2
15 | Cc1nc2c(N3C[C@@H](C)N(C(c4ccc(F)c(Cl)c4F)C4CC(F)(F)C4)C[C@@H]3C)nc3nncn3c2n1C[C@@H]1CCCO1 (stereo partly drawn) [Example 57, 4-((2S,5R)-4-((3-Chloro-2,4-difluorophenyl)(3,3-difluorocyclobutyl)methyl)-2,5-dimethylpiperazin-1-yl)-2-methyl-1-(((S)-tetrahydrofuran-2-yl)methyl)-1H-[1,2,4]triazolo[3,4-b]purine] | ≤ 0.02 | ≤ 0.02
16 | Cc1nc2c(N3C[C@@H](C)N([C@H](c4ccc(Cl)cc4)C(C)C)C[C@@H]3C)nc3nncn3c2n1C[C@@H]1CCCO1 [Example 88, 4-((2S,5R)-4-((S)-1-(4-Chlorophenyl)-2-methylpropyl)-2,5-dimethylpiperazin-1-yl)-2-methyl-1-(((S)-tetrahydrofuran-2-yl)methyl)-1H-[1,2,4]triazolo[3,4-b]purine] | ≤ 0.02 | ≤ 0.02
17 | CC[C@@H]1CN(c2nc3nncn3c3c2nc(C)n3C[C@@H]2CCCO2)[C@@H](C)CN1C(CO)(c1ccc(F)cc1)c1ccc(F)cc1 [Example 125, 2-((2R,5S)-2-Ethyl-5-methyl-4-(2-methyl-1-(((S)-tetrahydrofuran-2-yl)methyl)-1H-[1,2,4]triazolo[3,4-b]purin-4-yl)piperazin-1-yl)-2,2-bis(4-fluorophenyl)ethan-1-01] | ≤ 0.02 | ≤ 0.02
18 | CC[C@@H]1CN(c2nc3nncn3c3c2nc(C)n3C[C@@H]2CCCO2)[C@@H](C)CN1[C@@H](c1ccc(C(F)(F)F)cc1)C(C)C [Example 129, 4-((2S,5R)-5-Ethyl-2-methyl-4-((R)-2-methyl-1-(4-(trifluoromethyl)phenyl)propyl)piperazin-1-yl)-2-methyl-1-(((S)-tetrahydrofuran-2-yl)methyl)-1H-[1,2,4]triazolo[3,4-b]purine] | ≤ 0.02 | ≤ 0.02
19 | C[C@@H]1CN(c2nc3nncn3c3c2ncn3CCN(C)C)[C@@H](C)CN1C(c1ccc(Cl)cc1)C1CC(F)(F)C1 (single isomer, unassigned) [Example 64] | ≤ 0.02 | ≤ 0.02
20 | Cc1nc2c(N3C[C@@H]([C@@H](C)O)N(C(c4ccc(F)cc4)c4ccc(F)cc4)C[C@@H]3C)nc3nncn3c2n1C[C@@H]1CCCO1 [Example 123, (R)-1-((2S,5S)-1-(Bis(4-fluorophenyl)methyl)-5-methyl-4-(2-methyl-1-(((S)-tetrahydrofuran-2-yl)methyl)-1H-[1,2,4]triazolo[3,4-b]purin-4-yl)piperazin-2-yl)ethan-1-ol] | ≤ 0.02 | ≤ 0.02
21 | Cc1nc2c(N3C[C@@H](C)N(C(c4ccc(Cl)cc4)c4ccc(F)c(Cl)c4)C[C@@H]3C)nc3nncn3c2n1C[C@@H]1CCCO1 (single isomer, unassigned) [Example 140] | ≤ 0.02 | ≤ 0.02

From US20230399342A1 (Incyte Corporation, priority 2022, published 2023)
